Experimental data as given in patent US20080119515A1, “Heterocyclic Kinase Inhibitors: Methods of Use and Synthesis” (priority 2003, published 2008).

Biological target: T1, ZAP-70 (Homo sapiens, UniProt P43403)
T1 sequence (P43403 1-619): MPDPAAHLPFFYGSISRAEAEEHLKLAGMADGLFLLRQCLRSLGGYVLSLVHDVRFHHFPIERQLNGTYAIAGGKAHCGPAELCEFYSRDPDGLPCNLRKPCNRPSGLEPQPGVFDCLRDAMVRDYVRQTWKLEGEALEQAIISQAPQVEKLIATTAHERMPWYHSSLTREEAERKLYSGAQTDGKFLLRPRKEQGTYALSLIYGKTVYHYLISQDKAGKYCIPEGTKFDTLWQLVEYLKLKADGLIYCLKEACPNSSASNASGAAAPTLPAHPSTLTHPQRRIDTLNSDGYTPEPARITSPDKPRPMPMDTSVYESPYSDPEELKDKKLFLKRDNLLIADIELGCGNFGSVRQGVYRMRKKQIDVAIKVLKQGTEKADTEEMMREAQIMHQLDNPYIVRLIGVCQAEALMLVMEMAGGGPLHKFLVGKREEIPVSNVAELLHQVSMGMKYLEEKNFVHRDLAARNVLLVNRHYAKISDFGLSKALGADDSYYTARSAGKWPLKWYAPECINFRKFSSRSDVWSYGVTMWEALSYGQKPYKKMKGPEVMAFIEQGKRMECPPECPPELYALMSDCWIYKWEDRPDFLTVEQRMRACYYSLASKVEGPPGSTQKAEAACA
Test: DELFIA assay (ZAP-70 kinase, phosphorylation of biotinylated poly(glu,tyr))
Assay type: biochemical
Conditions: ZAP-70 DELFIA, class symbols; read-out: Activity (IC50 in vitro)
Description: Before initiation of kinase reactions, compounds were pre-incubated with ZAP-70. Pre-incubation reactions contained 62.5 mM Mops pH 7.0, 12.5 mM MgCl2, 12.5% glycerol, 3.1 nM ZAP-70, 62.5 nM biotinylated poly(glu,Tyr), 0.1 mg/ml BSA, 6.25% DMSO and […] compound in a total volume of […]. After a 10 minute room temperature incubation, 10 ml of 5 mM ATP was added to start the reaction. Reactions were incubated at room temperature for 30 minutes then terminated by addition of 5 ml 500 mM EDTA. The amount of phosphate transferred to biotinylated poly(glu,tyr) was measured using the Dissociation Enhanced Lanthanide Fluorescence Immuno-assay (DELFIA) from Perkin Elmer according to manufacturers protocol. Briefly, biotinylated […] was captured on streptavidin coated plates, washed twice, then incubated with Europium labeled-anti-phosphotyrosine antibody. Free antibody was removed with six washes, Europium was dissociated from the antibody, and Europium fluorescence was measured at using an excitation wavelength of 340 nm and an emission wavelength of 615 nm.

Row | Structure (SMILES) | IC50 [nM]
1 | O=C(c1cc(Cl)nc2ccc(-c3ccc4c(c3)OCO4)cc12)N1CCC[C@H]1CN1CCCC1 [Compound 1] | 1000 to 10000
2 | O=C(c1cc(NC2CC2)nc2ccc(-c3ccc4c(c3)OCO4)cc12)N1CCC[C@H]1CN1CCCC1 [Compound 2] | 1000 to 10000
3 | O=C(c1cc(Cl)nc2ccccc12)N1CCC[C@H]1CN1CCCC1 [Compound 3] | > 10000
4 | O=C(c1cc(NCc2ccccc2)nc2ccc(-c3ccc4c(c3)OCO4)cc12)N1CCC[C@H]1CN1CCCC1 [Compound 4] | < 1000
5 | O=C(c1cc(N2CCOCC2)nc2ccc(-c3ccc4c(c3)OCO4)cc12)N1CCC[C@H]1CN1CCOCC1 [Compound 5] | 1000 to 10000
6 | COc1cc(C(=O)N2CCC[C@H]2CN2CCCC2)cc(-c2ccc3c(c2)OCO3)n1 [Compound 6] | > 10000
7 | COc1cc(C(=O)N2CCC[C@H]2CN2CCCC2)cc(NCc2ccccc2)n1 [Compound 7] | > 10000
8 | O=C(c1cc(Nc2ccc3c(c2)OCO3)nc2ccccc12)N1CCC[C@H]1CN1CCCC1 [Compound 8] | > 10000
9 | O=C(c1cc(NC2CC2)nc2ccccc12)N1CCC[C@H]1CN1CCCC1 [Compound 9] | > 10000
10 | O=C(c1cc(Nc2ccc3cn[nH]c3c2)nc2ccccc12)N1CCC[C@H]1CN1CCCC1 [Compound 10] | > 10000
11 | Nc1cc(C(=O)N2CCC[C@H]2CN2CCCC2)c2cc(-c3ccc4c(c3)OCO4)ccc2n1 [Compound 11] | 1000 to 10000
12 | CN(Cc1ccccc1)c1cc(C(=O)N2CCC[C@H]2CN2CCCC2)c2cc(-c3ccc4c(c3)OCO4)ccc2n1 [Compound 12] | < 1000
13 | O=C(c1cc(Nc2ccccc2)nc2ccc(-c3ccc4c(c3)OCO4)cc12)N1CCC[C@H]1CN1CCCC1 [Compound 13] | < 1000
14 | O=C(c1cc(NCc2ccccc2)nc2ccccc12)N1CCC[C@H]1CN1CCCC1 [Compound 14] | > 10000
15 | COc1ccc(Nc2cc(C(=O)N3CCC[C@H]3CN3CCCC3)c3cc(-c4ccc5c(c4)OCO5)ccc3n2)cc1 [Compound 15] | < 1000
16 | O=C(c1cc(Nc2ccc(F)cc2)nc2ccc(-c3ccc4c(c3)OCO4)cc12)N1CCC[C@H]1CN1CCCC1 [Compound 16] | < 1000
17 | COc1cccc(Nc2cc(C(=O)N3CCC[C@H]3CN3CCCC3)c3cc(-c4ccc5c(c4)OCO5)ccc3n2)c1 [Compound 17] | < 1000
18 | O=C(c1cc(Nc2cccc(Br)c2)nc2ccc(-c3ccc4c(c3)OCO4)cc12)N1CCC[C@H]1CN1CCCC1 [Compound 18] | < 1000
19 | O=C(c1cc(Nc2ccccn2)nc2ccc(-c3ccc4c(c3)OCO4)cc12)N1CCC[C@H]1CN1CCCC1 [Compound 19] | < 1000
20 | CN(C)C[C@@H]1CCCN1C(=O)c1cc(N(C)C)nc2ccc(-c3ccc4c(c3)OCO4)cc12 [Compound 20] | > 10000

Row | Structure (SMILES) | IC50 [nM]
21 | O=C(c1cc(NCc2ccccc2)nc2ccc(-c3ccc4c(c3)OCO4)cc12)N1CCC[C@H]1CNCc1ccccc1 [Compound 21] | > 10000
22 | O=C(c1cc(Oc2ccccc2)nc2ccc(-c3ccc4c(c3)OCO4)cc12)N1CCC[C@H]1CN1CCCC1 [Compound 22] | < 1000
23 | O=C(c1cc(OCc2ccccc2)nc2ccc(-c3ccc4c(c3)OCO4)cc12)N1CCC[C@H]1CN1CCCC1 [Compound 23] | < 1000
24 | O=C(c1cc(NC2CCCCC2)nc2ccc(-c3ccc4c(c3)OCO4)cc12)N1CCC[C@H]1CN1CCCC1 [Compound 24] | < 1000
25 | O=C(c1cc(Cc2ccccc2)nc2ccc(-c3ccc4c(c3)OCO4)cc12)N1CCC[C@H]1CN1CCCC1 [Compound 25] | < 1000
26 | O=C(c1cc(NCCN2CCOCC2)nc2ccc(-c3ccc4c(c3)OCO4)cc12)N1CCC[C@H]1CN1CCCC1 [Compound 26] | > 10000
27 | O=C(c1cc(NCC2CCCCC2)nc2ccc(-c3ccc4c(c3)OCO4)cc12)N1CCC[C@H]1CN1CCCC1 [Compound 27] | < 1000
28 | O=C(c1cc(NC2CCCC2)nc2ccc(-c3ccc4c(c3)OCO4)cc12)N1CCC[C@H]1CN1CCCC1 [Compound 28] | > 10000
29 | O=C(c1cc(NC2Cc3ccccc3C2)nc2ccc(-c3ccc4c(c3)OCO4)cc12)N1CCC[C@H]1CN1CCCC1 [Compound 29] | 1000 to 10000
30 | O=C(c1cc(NCc2ccc(F)cc2)nc2ccc(-c3ccc4c(c3)OCO4)cc12)N1CCC[C@H]1CN1CCCC1 [Compound 30] | < 1000
31 | O=C(c1cc(NCc2cccc(F)c2)nc2ccc(-c3ccc4c(c3)OCO4)cc12)N1CCC[C@H]1CN1CCCC1 [Compound 31] | < 1000
32 | O=C(c1cc(NCCN2CCCCC2)nc2ccc(-c3ccc4c(c3)OCO4)cc12)N1CCC[C@H]1CN1CCCC1 [Compound 32] | > 10000
33 | O=C(c1cc(NCc2ccccn2)nc2ccc(-c3ccc4c(c3)OCO4)cc12)N1CCC[C@H]1CN1CCCC1 [Compound 33] | 1000 to 10000
34 | O=C(c1cc(NCc2cccnc2)nc2ccc(-c3ccc4c(c3)OCO4)cc12)N1CCC[C@H]1CN1CCCC1 [Compound 34] | 1000 to 10000
35 | O=C(c1cc(NCc2ccc(Cl)cc2)nc2ccc(-c3ccc4c(c3)OCO4)cc12)N1CCC[C@H]1CN1CCCC1 [Compound 35] | < 1000
36 | O=C(c1cc(NCc2ccccc2Cl)nc2ccc(-c3ccc4c(c3)OCO4)cc12)N1CCC[C@H]1CN1CCCC1 [Compound 36] | < 1000
37 | O=C(c1cc(NCCc2ccccc2)nc2ccc(-c3ccc4c(c3)OCO4)cc12)N1CCC[C@H]1CN1CCCC1 [Compound 37] | < 1000
38 | O=C(c1cc(NCc2ccncc2)nc2ccc(-c3ccc4c(c3)OCO4)cc12)N1CCC[C@H]1CN1CCCC1 [Compound 38] | 1000 to 10000
39 | O=C(c1cc(NC2CCC2)nc2ccc(-c3ccc4c(c3)OCO4)cc12)N1CCC[C@H]1CN1CCCC1 [Compound 39] | 1000 to 10000
40 | O=C(c1cc(NCc2ccc(F)c(Cl)c2)nc2ccc(-c3ccc4c(c3)OCO4)cc12)N1CCC[C@H]1CN1CCCC1 [Compound 40] | < 1000

Row | Structure (SMILES) | IC50 [nM]
41 | O=C(c1cc(N[C@H]2CCc3ccccc32)nc2ccc(-c3ccc4c(c3)OCO4)cc12)N1CCC[C@H]1CN1CCCC1 [Compound 41] | < 1000
42 | O=C(c1cc(N[C@@H]2CCc3ccccc32)nc2ccc(-c3ccc4c(c3)OCO4)cc12)N1CCC[C@H]1CN1CCCC1 [Compound 42] | 1000 to 10000
43 | CCC(Nc1cc(C(=O)N2CCC[C@H]2CN2CCCC2)c2cc(-c3ccc4c(c3)OCO4)ccc2n1)c1ccccc1 (stereo partly shown) [Compound 43] | < 1000
44 | O=C(c1cc(NCc2ccc(C(F)(F)F)cc2)nc2ccc(-c3ccc4c(c3)OCO4)cc12)N1CCC[C@H]1CN1CCCC1 [Compound 44] | < 1000
45 | O=C(c1cc(NCCc2ccc(Cl)cc2Cl)nc2ccc(-c3ccc4c(c3)OCO4)cc12)N1CCC[C@H]1CN1CCCC1 [Compound 45] | < 1000
46 | O=C(c1cc(NCc2ccc(F)cc2F)nc2ccc(-c3ccc4c(c3)OCO4)cc12)N1CCC[C@H]1CN1CCCC1 [Compound 46] | < 1000
47 | C[C@@H](O)CNc1cc(C(=O)N2CCC[C@H]2CN2CCCC2)c2cc(-c3ccc4c(c3)OCO4)ccc2n1 [Compound 47] | 1000 to 10000
48 | O=C(c1cc(N[C@@H]2c3ccccc3C[C@@H]2O)nc2ccc(-c3ccc4c(c3)OCO4)cc12)N1CCC[C@H]1CN1CCCC1 [Compound 48] | 1000 to 10000
49 | O=C(c1cc(NCCc2c[nH]cn2)nc2ccc(-c3ccc4c(c3)OCO4)cc12)N1CCC[C@H]1CN1CCCC1 [Compound 49] | 1000 to 10000
50 | O=C(c1cc(NCc2cccs2)nc2ccc(-c3ccc4c(c3)OCO4)cc12)N1CCC[C@H]1CN1CCCC1 [Compound 50] | < 1000
51 | O=C(c1cc(Nc2ccc(Oc3ccccc3)cc2)nc2ccc(-c3ccc4c(c3)OCO4)cc12)N1CCC[C@H]1CN1CCCC1 [Compound 51] | < 1000
52 | O=C(c1cc(Nc2ccc(Cl)cc2)nc2ccc(-c3ccc4c(c3)OCO4)cc12)N1CCC[C@H]1CN1CCCC1 [Compound 52] | < 1000
53 | O=C(c1cc(Nc2ccc3c(c2)OCO3)nc2ccc(-c3ccc4c(c3)OCO4)cc12)N1CCC[C@H]1CN1CCCC1 [Compound 53] | < 1000
54 | CC(CNc1cc(C(=O)N2CCC[C@H]2CN2CCCC2)c2cc(-c3ccc4c(c3)OCO4)ccc2n1)c1ccccc1 (stereo partly shown) [Compound 54] | < 1000
55 | O=C(c1cc(NCC(O)c2ccccc2)nc2ccc(-c3ccc4c(c3)OCO4)cc12)N1CCC[C@H]1CN1CCCC1 (stereo partly shown) [Compound 55] | < 1000
56 | O=C(c1cc(Nc2ccc3ncsc3c2)nc2ccc(-c3ccc4c(c3)OCO4)cc12)N1CCC[C@H]1CN1CCCC1 [Compound 56] | < 1000
57 | O=C(c1cc(Nc2ccc3cn[nH]c3c2)nc2ccc(-c3ccc4c(c3)OCO4)cc12)N1CCC[C@H]1CN1CCCC1 [Compound 57] | < 1000
58 | CC(=O)N1CCN(c2cc(C(=O)N3CCC[C@H]3CN3CCCC3)c3cc(-c4ccc5c(c4)OCO5)ccc3n2)CC1 [Compound 58] | 1000 to 10000
